Experimental findings from patent US20250188069A1, “COMPOUNDS AND METHODS FOR DEGRADING CASEIN KINASE 1 ALPHA” (PIN THERAPEUTICS, INC., priority 2022, published 2025) are described below.

This experiment relates to MV-4-11 cells. Nature of the experiment: AML cell viability assay (RealTime-Glo). To be noted: Homo sapiens, read-out: Cell viability classification. The format is cell-based.
Setting [1] is: MV4-11, IC50 class, MV-4-11 cells, RealTime-Glo after 44 hrs of treatment (TABLE 4).
The mark [2] stands for this setting: MV4-11, IC50 class, MV-4-11 cells, RealTime-Glo after 44 hrs of treatment (TABLE 5).

Structures can show the parent of a compound that is named as a salt. Where two headings read alike, the source gives them in different places.

With `O=C1CCC(N2Cc3c(cccc3N(CCC3CC3)[C@H]3CC[C@@H](c4nnc[nH]4)CC3)C2=O)C(=O)N1` (stereo partly drawn) [Compound 573, 3-{4-[(2-cyclopropylethyl)[(1s,4s)-4-(4H-1,2,4-triazol-3-yl)cyclohexyl]amino]-1-oxo-3H-isoindol-2-yl}piperidine-2,6-dione; formate], the IC50 under setting [1] is under 100 nM. As for `O=C1CCC(N2Cc3c(cccc3N(CCC3CC3)[C@H]3CC[C@H](c4nnc[nH]4)CC3)C2=O)C(=O)N1` (stereo partly drawn) [Compound 574, 3-{4-[(2-cyclopropylethyl)[(1r,4r)-4-(4H-1,2,4-triazol-3-yl)cyclohexyl]amino]-1-oxo-3H-isoindol-2-yl}piperidine-2,6-dione; formate], the IC50 under setting [1] was in the range of 100 to 1000 nM. Turning to `O=C1CCC(N2Cc3c(cccc3N(CCC3CC3)[C@H]3CC[C@@H](Nc4ccccn4)CC3)C2=O)C(=O)N1` (stereo partly drawn) [Compound 575, 3-{4-[(2-cyclopropylethyl)[(1s,4s)-4-(pyridin-2-ylamino)cyclohexyl]amino]-1-oxo-3H-isoindol-2-yl}piperidine-2,6-dione], the IC50 (MV4-11, 44 h) was in the range of 100 to 1000 nM. Same read-out and setting: the same measure for `O=C1CCC(N2Cc3c(cccc3N(CCC3CC3)[C@H]3CC[C@H](Nc4ccccn4)CC3)C2=O)C(=O)N1` (stereo partly drawn) [Compound 576, 3-{4-[(2-cyclopropylethyl)[(1r,4r)-4-(pyridin-2-ylamino)cyclohexyl]amino]-1-oxo-3H-isoindol-2-yl}piperidine-2,6-dione]: 100 to 1000 nM. On to `O=C1CCC(N2Cc3c(cccc3N(CCC3CC3)[C@H]3CC[C@H](NCC(F)(F)F)CC3)C2=O)C(=O)N1` (stereo partly drawn) [Compound 580, 3-{4-[(2-cyclopropylethyl)[(1r,4r)-4-[(2,2,2-trifluoroethyl)amino]cyclohexyl]amino]-1-oxo-3H-isoindol-2-yl}piperidine-2,6-dione], for which the IC50 under setting [1] is over 1000 nM. On the same count and under the same terms, the same measure for `O=C1CCC(N2Cc3c(cccc3N(CCC3CC3)[C@H]3CC[C@H](NCC4(C(F)(F)F)CC4)CC3)C2=O)C(=O)N1` (stereo partly drawn) [Compound 582, 3-{4-[(2-cyclopropylethyl)[(1r,4r)-4-({[1-(trifluoromethyl)cyclopropyl]methyl}amino)cyclohexyl]amino]-1-oxo-3H-isoindol-2-yl}piperidine-2,6-dione]: under 100 nM; for `CC(N[C@H]1CC[C@H](N(CCC2CC2)c2cccc3c2CN(C2CCC(=O)NC2=O)C3=O)CC1)C(F)F` (stereo partly drawn) [Compound 583, 3-{4-[(2-cyclopropylethyl)[(1r,4r)-4-[(1,1-difluoropropan-2-yl)amino]cyclohexyl]amino]-1-oxo-3H-isoindol-2-yl}piperidine-2,6-dione]: 100 to 1000 nM. Turning to `N#CC1(CN[C@H]2CC[C@H](N(CCC3CC3)c3cccc4c3CN(C3CCC(=O)NC3=O)C4=O)CC2)CC1` (stereo partly drawn) [Compound 611, 1-({[(1r,4r)-4-[(2-cyclopropylethyl)[2-(2,6-dioxopiperidin-3-yl)-1-oxo-3H-isoindol-4-yl]amino]cyclohexyl]amino}methyl)cyclopropane-1-carbonitrile], the IC50 under setting [1] is under 100 nM. The same measure, in the same setting: the same measure for `O=C1CCC(N2Cc3c(cccc3N(CCC3CC3)[C@H]3CC[C@@H](NCC4(F)CC4)CC3)C2=O)C(=O)N1` (stereo partly drawn) [Compound 612A, 3-{4-[(2-cyclopropylethyl)[(1s,4s)-4-{[(1-fluorocyclopropyl)methyl]amino}cyclohexyl]amino]-1-oxo-3H-isoindol-2-yl}piperidine-2,6-dione]: 100 to 1000 nM; for `O=C1CCC(N2Cc3c(cccc3N(CCC3CC3)[C@H]3CC[C@@H](NCC4(F)CCC4)CC3)C2=O)C(=O)N1` (stereo partly drawn) [Compound 613A, 3-{4-[(2-cyclopropylethyl)[(1s,4s)-4-{[(1-fluorocyclobutyl)methyl]amino}cyclohexyl]amino]-1-oxo-3H-isoindol-2-yl}piperidine-2,6-dione]: 100 to 1000 nM. The same measure, in the same setting: the same measure for `O=C1CCC(N2Cc3c(cccc3N(CCC3CC3)[C@H]3CC[C@H](NCC4(C(F)(F)F)CCC4)CC3)C2=O)C(=O)N1` (stereo partly drawn) [Compound 614, 3-{4-[(2-cyclopropylethyl)[(1r,4r)-4-({[1-(trifluoromethyl)cyclobutyl]methyl}amino)cyclohexyl]amino]-1-oxo-3H-isoindol-2-yl}piperidine-2,6-dione; trifluoro acetate]: 100 to 1000 nM; for `O=C1CCC(N2Cc3c(cccc3N(CCC3CC3)[C@H]3CC[C@@H](NCC4(C(F)(F)F)CCC4)CC3)C2=O)C(=O)N1` (stereo partly drawn) [Compound 614A, 3-{4-[(2-cyclopropylethyl)[(1s,4s)-4-({[1-(trifluoromethyl)cyclobutyl]methyl}amino)cyclohexyl]amino]-1-oxo-3H-isoindol-2-yl}piperidine-2,6-dione; trifluoro acetate]: over 1000 nM. On to `O=C1CCC(N2Cc3c(cccc3N(CCC3CC3)[C@H]3CC[C@@H](NCC4(F)COC4)CC3)C2=O)C(=O)N1` (stereo partly drawn) [Compound 616A, 3-{4-[(2-cyclopropylethyl)[(1s,4s)-4-{[(3-fluorooxetan-3-yl)methyl]amino}cyclohexyl]amino]-1-oxo-3H-isoindol-2-yl}piperidine-2,6-dione; trifluoroacetate], for which the IC50 under setting [1] was in the range of 100 to 1000 nM. Take `O=C1CCC(N2Cc3c(ccc(F)c3N(CCC3CC3)[C@H]3CC[C@H](NCC4(C(F)(F)F)CC4)CC3)C2=O)C(=O)N1` (stereo partly drawn) [Compound 619, 3-(4-((2-cyclopropylethyl)(4-(((1-(trifluoromethyl)cyclopropyl)methyl)amino)cyclohexyl)amino)-5-fluoro-1-oxoisoindolin-2-yl)piperidine-2,6-dione]: the IC50 under setting [1] lay within 100 to 1000 nM. With `O=C1CCC(N2Cc3c(N(CCC4CC4)[C@H]4CC[C@H](NCC5(C(F)(F)F)CC5)CC4)ccc(F)c3C2=O)C(=O)N1` (stereo partly drawn) [Compound 627, 3-{4-[(2-cyclopropylethyl)[(1r,4r)-4-({[1-(trifluoromethyl)cyclopropyl]methyl}amino)cyclohexyl]amino]-7-fluoro-1-oxo-3H-isoindol-2-yl}piperidine-2,6-dione], under setting [1], the IC50 is over 1000 nM.

For `O=C1CCC(N2Cc3c(N(CCC4CC4)[C@H]4CC[C@@H](NCC5(C(F)(F)F)CC5)CC4)ccc(F)c3C2=O)C(=O)N1` (stereo partly drawn) [Compound 627A, 3-{4-[(2-cyclopropylethyl)[(1s,4s)-4-({[1-(trifluoromethyl)cyclopropyl]methyl}amino)cyclohexyl]amino]-7-fluoro-1-oxo-3H-isoindol-2-yl}piperidine-2,6-dione], under setting [1], the IC50 is over 1000 nM. For `O=C1CCC(N2Cc3c(cccc3N(CCCCC(F)(F)F)[C@H]3CC[C@H](NCC4(C(F)(F)F)CC4)CC3)C2=O)C(=O)N1` (stereo partly drawn) [Compound 628, 3-(1-oxo-4-{[(1r,4r)-4-({[1-(trifluoromethyl)cyclopropyl]methyl}amino)cyclohexyl](5,5,5-trifluoropentyl)amino}-3H-isoindol-2-yl)piperidine-2,6-dione; trifluoroacetate], under setting [1], the IC50 was in the range of 100 to 1000 nM. The same measure, in the same setting: the same measure for `O=C1CCC(N2Cc3c(cccc3N(CCCCC(F)(F)F)[C@H]3CC[C@@H](NCC4(C(F)(F)F)CC4)CC3)C2=O)C(=O)N1` (stereo partly drawn) [Compound 628A, 3-(1-oxo-4-{[(1s,4s)-4-({[1-(trifluoromethyl)cyclopropyl]methyl}amino)cyclohexyl](5,5,5-trifluoropentyl)amino}-3H-isoindol-2-yl)piperidine-2,6-dione; trifluoroacetate]: over 1000 nM. On the same count and under the same terms, the same measure for `O=C1CCC(N2Cc3c(cccc3N(CCCCC(F)(F)F)[C@H]3CC[C@@H](NCCC(F)(F)F)CC3)C2=O)C(=O)N1` (stereo partly drawn) [Compound 636A, 3-(1-oxo-4-{[(1s,4s)-4-[(3,3,3-trifluoropropyl)amino]cyclohexyl](5,5,5-trifluoropentyl)amino}-3H-isoindol-2-yl)piperidine-2,6-dione; trifluoroacetate]: over 1000 nM. Consider `O=C1CCC(N2Cc3c(cccc3N(CCC3CC3)[C@H]3CC[C@H](NCCCC(F)(F)F)CC3)C2=O)C(=O)N1` (stereo partly drawn) [Compound 642], for which the IC50 under setting [2] is under 100 nM.

Turning to `O=C1CCC(N2Cc3c(cccc3N(CCC3CC3)[C@H]3CC[C@H](NCC(F)(F)C(F)(F)F)CC3)C2=O)C(=O)N1` (stereo partly drawn) [Compound 644], the IC50 under setting [2] is over 1000 nM. On the same count and under the same terms, under `O=C1CCC(N2Cc3c(cccc3N(CCC3CC3)[C@H]3CC[C@H](NCCC4(C(F)(F)F)CC4)CC3)C2=O)C(=O)N1` (stereo partly drawn) [Compound 645, 3-{4-[(2-cyclopropylethyl)[(1r,4r)-4-({2-[1-(trifluoromethyl)cyclopropyl]ethyl}amino)cyclohexyl]amino]-1-oxo-3H-isoindol-2-yl}piperidine-2,6-dione trifluoroacetic acid] stands under 100 nM; under `O=C1CCC(N2Cc3c(cccc3N(CCC3CC3)[C@H]3CC[C@H](NCCOC(F)(F)F)CC3)C2=O)C(=O)N1` (stereo partly drawn) [Compound 647], under 100 nM; under `CCCN(c1cccc2c1CN(C1CCC(=O)NC1=O)C2=O)[C@H]1CC[C@H](NCCC(F)(F)F)CC1` (stereo partly drawn) [Compound 648, 3-(1-oxo-4-{propyl[(1r,4r)-4-[(3,3,3-trifluoropropyl)amino]cyclohexyl]amino}-3H-isoindol-2-yl)piperidine-2,6-dione trifluoroacetic acid], under 100 nM. Same read-out and setting: under `O=C1CCC(N2Cc3c(cccc3N(CC3CCC3)[C@H]3CC[C@H](NCCC(F)(F)F)CC3)C2=O)C(=O)N1` (stereo partly drawn) [Compound 649, 3-{4-[(cyclobutylmethyl)[(1r,4r)-4-[(3,3,3-trifluoropropyl)amino]cyclohexyl]amino]-1-oxo-3H-isoindol-2-yl}piperidine-2,6-dione trifluoroacetic acid] stands 100 to 1000 nM; under `O=C1CCC(N2Cc3c(cccc3N(CC3CC3)[C@H]3CC[C@H](NCC4(C(F)(F)F)CC4)CC3)C2=O)C(=O)N1` (stereo partly drawn) [Compound 653, 3-(4-((cyclopropylmethyl)((1r,4r)-4-(((1-(trifluoromethyl)cyclopropyl)methyl)amino)cyclohexyl)amino)-1-oxoisoindolin-2-yl)piperidine-2,6-dione formate], 100 to 1000 nM. `O=C1CCC(N2Cc3c(cccc3N(CC3CCC3)[C@H]3CC[C@H](NCC4(C(F)(F)F)CC4)CC3)C2=O)C(=O)N1` (stereo partly drawn) [Compound 654, 3-(4-((cyclobutylmethyl)((1r,4r)-4-(((1-(trifluoromethyl)cyclopropyl)methyl)amino)cyclohexyl)amino)-1-oxoisoindolin-2-yl)piperidine-2,6-dione]: under setting [2], the IC50 lay in the range of 100 to 1000 nM.
